Literature values as cited in patent publication US10543172B2, “Econazole composition and methods of treatment therewith” (PARAGON NORDIC AB, priority 2010, dated 2020).

Test system: dermatophytes and yeasts
Conditions: Liao et al., Yao Xue Xue Bao 28(1):22-7 (1993)

Q: For `Clc1ccc(CO[C@@H](Cn2ccnc2)c2ccc(Cl)cc2Cl)cc1` [(R)-(−)-econazole], which “antifungal activity of stereoisomer” value is on record?
A: greater antifungal activity
